Experimental data as given in article PMC12728616, “Regioselective Glycosylation of Fluorine-18-Labeled Sorbitol for Enhanced Bacterial Detection In Vivo Using PET” (JACS Au, 2025).

Experiments:
[1] = tested on: S. aureus (ATCC 29213); assay: In vitro uptake of 18F-tracers by bacteria; assay type: cell-based, Staphylococcus aureus
Experimental: (§1) In vitro evaluation of ^18F-tracers was conducted according to our established procedure. Briefly, bacteria were incubated overnight at 37 °C, subcultured into a fresh medium at an initial OD600 of 0.05, and then allowed to reach the mid log phase (OD600 ∼ 0.4). The cultures were subsequently incubated with ^18F-tracers (final concentration: 0.1 MBq/mL) at 37 °C for 90 min. Subsequently, 300 μL aliquots of these cultures were centrifuged at 13,200 rpm for 6 min. The resulting pellets were washed with 300 μL of phosphate-buffered saline (PBS). The radioactivity of the pellets and supernatants was measured using a gamma counter. Uptake values were normalized to colony-forming units (CFUs).

[2] = tested on: Enterococcus faecalis; assay: In vitro uptake of 18F-tracers by bacteria; assay type: cell-based; conditions: E. faecalis; 37 °C, 90 min
Experimental: as §1

[3] = tested on: Listeria monocytogenes; assay: In vitro uptake of 18F-tracers by bacteria; assay type: cell-based; conditions: L. monocytogenes; 37 °C, 90 min
Experimental: as §1

[4] = tested on: Staphylococcus epidermidis; assay: In vitro uptake of 18F-tracers by bacteria; assay type: cell-based; conditions: S. epidermidis; 37 °C, 90 min
Experimental: as §1

[5] = tested on: Streptococcus agalactiae; assay: In vitro uptake of 18F-tracers by bacteria; assay type: cell-based; conditions: S. agalactiae; 37 °C, 90 min
Experimental: as §1

[6] = tested on: Streptococcus pyogenes; assay: In vitro uptake of 18F-tracers by bacteria; assay type: cell-based; conditions: S. pyogenes; 37 °C, 90 min
Experimental: as §1

[7] = tested on: K. pneumoniae; assay: In vitro uptake of 18F-tracers by bacteria; assay type: cell-based, Klebsiella pneumoniae
Experimental: as §1

[8] = tested on: methicillin-resistant S. aureus (MRSA) clinical isolates; assay: In vitro uptake in clinical isolates; assay type: cell-based, Staphylococcus aureus; conditions: P < 0.0001
Experimental: as §1

[9] = tested on: methicillin-sensitive S. aureus (MSSA) clinical isolates; assay: In vitro uptake in clinical isolates; assay type: cell-based, Staphylococcus aureus; conditions: vs S. aureus ATCC 29213; P < 0.0001
Experimental: as §1

[10] = In vitro stability in serum; assay type: in vitro ADME, mouse; conditions: up to 120 min at 37 °C
[11] = In vitro stability in serum; assay type: in vitro ADME, human; conditions: up to 120 min at 37 °C
[12] = Dynamic PET/CT and ex vivo biodistribution in uninfected mice; conditions: for ex vivo residual activity in organs versus [18F]FDS: heart, lung, stomach, liver, intestine, kidney, muscle, after 90 min PET/CT; for peak uptake (Cmax) in bladder / peak uptake (Cmax) in kidneys / peak uptake (Cmax) in liver: dynamic PET 90 min; for elimination half-life (T1/2β) / plasma distribution half-life (T1/2α): blood pool TAC, two-compartment fit
Experimental: To assess the effect of [^18F]-FDS glycosylation on tissue uptake in vivo, we performed dynamic PET/CT scans for 90 min after the intravenous injection of [^18F]-FNT, [^18F]-FMT, and [^18F]-FDS in uninfected mice, followed by ex vivo analysis.
μPET/CT imaging was conducted using a nanoScan μPET/CT instrument (PET123S/CT1512, Mediso). Mice were anesthetized with 2% isoflurane/oxygen for intravenous administration of ^18F-tracers (∼5 MBq in 150 μL) via tail vein and maintained during data acquisition. PET data of uninfected mice were acquired in the list mode for 90 min, starting immediately after ^18F-tracer administration, followed by a CT scan. The PET data were reconstructed into three-dimensional volumes and coregistered with CT images using manufacturer-provided software in 53 dynamic frames (15 × 2 s, 6 × 5 s, 6 × 10 s, 4 × 30 s, 6 × 30 s, and 16 × 300 s). PET data of infected mice were acquired for 20 min, starting at 70 min postinjection of ^18F-tracer (mid time 80 min), followed by a CT scan. The list mode PET data were reconstructed into three-dimensional volumes in a single static frame. All PET scans were corrected for ^18F decay, dead time, and random coincidences and reconstructed into a 160 × 160 × 184 matrix with voxel size 0.8 mm using a three-dimensional ordered subject expectation maximization (OSEM) algorithm (40 iterations, 1 subset). Both attenuation and scatter corrections were applied to PET reconstructions using the coregistered CT. ROIs were drawn manually around the brain, lungs, liver, kidney, and urinary bladder using Amide software to generate image-derived TACs. For the estimation of blood pool radioactivity over time, ROIs were drawn on the left atrium. To estimate the plasma half-life of tracers, the TAC of the blood pool was fitted to a two-compartment model using a biexponential decay function: C t(t) = Ae ^–αt + Be ^ ‑βt , where C t(t) is the tracer concentration (% IDcc^–1) at time (t), A and B are the intercepts, and α and β are the distribution and elimination rate constants, respectively. , Quantitative uptake values are expressed as % IDcc^–1, representing the percent of the total injected dose per cubic centimeter. For the S. aureus myositis model, identical volume ROIs were drawn corresponding to the peak uptake of [^18F]-FNT at the live S. aureus inoculated site and heat-killed S. aureus inoculated site, respectively.

[13] = Human radiation dosimetry extrapolated from murine biodistribution; assay type: in vivo
Experimental: A dosimetry study was carried out in female CBA/J mice (n = 4, 9–11 weeks). Human organ and whole-body effective doses were extrapolated from the mice biodistribution data according to our previous report. For each organ, absorbed and equivalent doses (mGy/MBq or mSv/MBq), as well as whole-body effective doses (mSv/MBq), were calculated from murine data. Dose estimations were performed with OLINDA software (v1.1 and 2.0 with ICRP 60 and 103 tissue weighting factors). ,

[14] = Radio-HPLC analysis of urine samples (metabolic stability in vivo); conditions: urine from healthy mice 90 min after i.v. administration
Experimental: 7 Dosimetry extrapolated to humans and metabolic stability of [^18F]-FNT. (A) Estimated absorbed dose (mGy/MBq) extrapolated from murine biodistribution data using ICRP103 (adult female, 60 kg). (B–D) Representative radio-HPLC profiles of [^18F]-FDS (B), [^18F]-FNT (C), and urine samples collected from healthy mice 90 min following [^18F]-FNT administration via i.v. (D).

## OC[C@@H](O)[C@@H](O)[C@H](O[C@H]1O[C@H](CO)[C@@H](O)[C@H](O)[C@H]1O)[C@@H]([18F])CO [[18F]FNT, 2-deoxy-2-[18F]fluoro-D-nigeritol]
[1]; S. aureus ATCC 29213, 1 mM [19F]FNT, P < 0.0001
  uptake in the presence of nonradioactive [19F]FNT (blocking): significantly reduced
[1]; S. aureus, 37 °C, 90 min
  in vitro uptake: moderate uptake
[1]; heat-killed bacteria, P < 0.0001
  uptake in heat-killed S. aureus: no uptake
[2]
  in vitro uptake: moderate uptake
[3]
  in vitro uptake: low
[4]
  in vitro uptake: moderate uptake
[5]
  in vitro uptake: low
[6]
  in vitro uptake: low
[7]
  in vitro uptake: considerable uptake
[8]; in vitro
  higher uptake in clinically isolated MRSA compared with [18F]FMT: approximately 4 fold
[8]; vs S. aureus ATCC 29213
  uptake in clinical MRSA isolates compared to the reference MSSA strain: higher uptake
[9]
  uptake in clinical MSSA isolates compared to the reference MSSA strain: higher uptake
[10]
  in vitro stability in mouse serum: intact
[11]
  in vitro stability in human serum: intact
[12]
  ex vivo residual activity in organs versus [18F]FDS: significantly lower residual activity
[12]; uninfected mice, i.v.
  area under the curve (AUC0→90min) in bladder: 44418.3 ± 950.9 % IDcc^–1·min
  area under the curve (AUC0→90min) in liver: 105.7 ± 4.0 % IDcc^–1·min
  peak uptake (Cmax) in bladder: 606.8 ± 9.0 % IDcc^–1
  peak uptake (Cmax) in kidneys: 104.5 ± 14.2 % IDcc^–1
  peak uptake (Cmax) in liver: 19.2 ± 0.9 % IDcc^–1
[12]; uninfected mice
  elimination half-life (T1/2β): 14.07 min
  plasma distribution half-life (T1/2α): 0.52 min
[13]; ICRP 60
  calculated human effective dose: 0.0163 ± 0.0012 mSv/MBq
[13]; ICRP 60 model
  kidneys dose: 0.0753 ± 0.0307 mSv/MBq
  urinary bladder dose: 0.1783 ± 0.0314 mSv/MBq
[13]; ICRP 103
  calculated human effective dose: 0.0126 ± 0.0005 mSv/MBq
[13]; ICRP 103 model
  kidneys dose: 0.0751 ± 0.0307 mSv/MBq
  urinary bladder dose: 0.1518 ± 0.0262 mSv/MBq
[13]; overall, called low
  estimated organ-absorbed doses overall: > 0.02 mSv/MBq
[14]
  metabolic stability in vivo (urine radio-HPLC): remained intact, with no degradation observed

## OC[C@@H](O)[C@@H](O[C@H]1O[C@H](CO)[C@@H](O)[C@H](O)[C@H]1O)[C@H](O)[C@@H]([18F])CO [[18F]FMT, 2-deoxy-2-[18F]fluoro-D-maltitol]
[7]
  in vitro uptake: considerable uptake
[10]
  in vitro stability in mouse serum: intact
[11]
  in vitro stability in human serum: intact
[12]
  ex vivo residual activity in organs versus [18F]FDS: significantly lower residual activity
[12]; uninfected mice, i.v.
  peak uptake (Cmax) in bladder: 562.7 ± 31.3 % IDcc^–1
  peak uptake (Cmax) in kidneys: 102.3 ± 8.4 % IDcc^–1
  peak uptake (Cmax) in liver: 17.7 ± 0.9 % IDcc^–1
[12]; uninfected mice
  elimination half-life (T1/2β): 12.70 min
  plasma distribution half-life (T1/2α): 0.55 min
